SMILES strings stand for the structures.

Assay [1] has as its system TGFβ. Put plainly: Luciferase reporter gene assay for TGFβ activity (HEK293T SBE-Luc SMAD2/3 reporter, TGFβ agonist). The assay is classed as cell-based. Conditions: TGFβ 5 ng/mL. The procedure:
(§1) All cell lines were cultured in DMEM, supplemented with […] and 1% Pen/Strep. All media reagents were obtained from Gibco. BMP6, BMP9, and TGFβ were obtained from R&D Systems. C2C12-BRE and HEK293T-SBE were kept in selection with 400 ug/mL G418 from Invivogen.
(§2) In this reporter gene cell based ALK2 and TGFβ assay, the C2C12 cell line was employed for the measurement of ALK2 activity, using a BRE-Luc SMAD1/5/8 reporter and BMP6 as the agonist. The HEK293T cell line was employed to measure TGFβ activity, using a SBE-Luc SMAD2/3 reporter and TGFβ as the agonist. Luciferase reporter assays were read using Promega Steady-Glo Luciferase Assay System.
(§3) Cells were plated in 96 well white clear bottom assay plates at 10 k cells/well for C2C12-BRE, 15 k cells/well for HEK293-SBE in DMEM containing 2% FBS 1% P/S. Cells were given a minimum of 4 hours in incubator at 37° C./5% CO2 to adhere prior to further treatment. Compounds were diluted in DMSO to a 10-point dilution curve and added to the plate to reach the following final concentrations: 10000, 3000, 1000, 300, 100, and 30 nM in the HEK293-SBE assay and 1000, 300, 100, 30, 10, 3, 1, 0.3 nM in the C2C12-BRE assay. Negative and positive control wells received 2 μL DMSO as vehicle treatment. Plates were returned to incubator for 45 minutes and then BMP6 and TGFB were added to a final concentration of 50 ng/mL and 5 ng/mL, respectively. Plates were returned to the incubator and left overnight. After a minimum of 18 hours post BMP6/TGFβ addition, the plates were read using Promega Steady-Glo Luciferase Assay System. A 1:1 mixture of prepared steady-glo and phenol free DMEM was prepared, and 50 μL/well was added to the assay plates whose media had been flicked off. Plates were given 10 minutes post steady-glo addition before luminescence was read on a Spectramax M5e microplate reader. Negative control wells were averaged and subtracted from all other wells on the plate. Inhibition was calculated as the percent of signal loss compared to the averaged positive control wells.

Assay [2] concerns the target T1, ALK2 (Mus musculus, UniProt P37172).
T1 construct: endogenous in cells; host or cells: C2C12-BRE (BRE-Luc reporter line, G418 selection)
T1 sequence (P37172 21-509): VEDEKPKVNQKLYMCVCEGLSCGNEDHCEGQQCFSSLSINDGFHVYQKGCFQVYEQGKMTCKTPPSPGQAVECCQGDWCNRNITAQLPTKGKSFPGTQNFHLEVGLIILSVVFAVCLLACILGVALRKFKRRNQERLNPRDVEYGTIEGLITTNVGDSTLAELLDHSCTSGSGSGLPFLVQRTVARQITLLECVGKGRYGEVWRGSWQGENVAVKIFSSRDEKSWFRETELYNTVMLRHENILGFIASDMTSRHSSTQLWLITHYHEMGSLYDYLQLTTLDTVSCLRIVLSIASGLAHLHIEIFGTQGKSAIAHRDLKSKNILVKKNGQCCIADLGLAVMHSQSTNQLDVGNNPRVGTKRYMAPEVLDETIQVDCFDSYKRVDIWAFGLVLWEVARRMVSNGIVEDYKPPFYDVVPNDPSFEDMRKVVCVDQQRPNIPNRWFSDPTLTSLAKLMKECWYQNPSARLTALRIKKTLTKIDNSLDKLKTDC
Kind of assay: Luciferase reporter gene assay for ALK2 activity (C2C12 BRE-Luc SMAD1/5/8 reporter, BMP6 agonist). The conditions noted are these: BMP6 50 ng/mL. The assay is classed as cell-based. Here is the method:
as §1, §2, §3

A word on the IC50: it is the concentration that inhibits the measured activity by half. A higher IC50 goes with weaker potency in that assay. For `COc1cc2c(-c3cnn4cc(N5CCC(N6CC[N+](C)([O-])CC6)CC5)cnc34)ccnc2cc1F` [Compound 43], the IC50 in assay [1] (Homo sapiens, HEK-293T) stood at 1920 nM; in assay [2] it was 631 nM.

As for `Cc1cc(-c2cnn3cc(N4CCC(N5CCN(C)CC5)CC4)cnc23)c2cc(F)cc(F)c2n1` [Compound 276], the IC50 came out at 64 nM in assay [1] (Homo sapiens, HEK-293T) and 164 nM in assay [2].

As to `COc1cc2c(-c3cnn4cc(N5CC6(CN(C)C6)C5)cnc34)ccnc2cc1F` [Compound 282], the IC50 in assay [1] (Homo sapiens, HEK-293T) amounted to 96 nM; in assay [2], 10 nM.

`CN1CCN(C2CCN(c3cnc4c(-c5ccnc6ccc(Cl)c(F)c56)cnn4c3)CC2)CC1` [Compound 267]: the IC50 in assay [1] (Homo sapiens, HEK-293T) was more than 2000 nM; in assay [2], 162 nM.

As to `CN1CCN(C2CN(c3cnc4c(-c5ccncc5)cnn4c3)C2)CC1` [Compound 313], the IC50 in assay [1] (Homo sapiens, HEK-293T) was more than 3000 nM; in assay [2] it was 2 nM.

Regarding `Cc1cc(-c2cnn3cc(N4CCC(N5CCN(C)CC5)CC4)cnc23)c2cccc(C(F)(F)F)c2n1` [Compound 268], the IC50 is more than 1000 nM in assay [1] (Homo sapiens, HEK-293T) and 98 nM in assay [2].

As to `CN1CCN(C2CCN(c3cnc4c(-c5ccnc(N)c5)cnn4c3)CC2)CC1` [Compound 249], the 50% inhibitory concentration (IC50) was more than 1000 nM in assay [1] (Homo sapiens, HEK-293T) and more than 1000 nM in assay [2].

On to `COc1cc2c(-c3cnn4cc(N5CCC(N(C)C)CC5)cnc34)ccnc2cc1F` [Compound 188], for which the half-inhibitory concentration (IC50) in assay [1] (Homo sapiens, HEK-293T) was 126 nM; in assay [2] it was 50 nM.

Regarding `COc1cc2c(-c3cnn4cc(N5CCC(N6CC[N+](C)(C)CC6)CC5)cnc34)ccnc2cc1F` [Compound 44], the half-inhibitory concentration (IC50) in assay [1] (Homo sapiens, HEK-293T) is 210 nM; in assay [2], more than 3000 nM.

With `CC(=O)Nc1ccc2nccc(-c3cnn4cc(N5CCC(N6CCN(C)CC6)CC5)cnc34)c2c1` [Compound 281], the IC50 in assay [1] (Homo sapiens, HEK-293T) was more than 3000 nM; in assay [2] it was more than 3000 nM.

In the case of `COc1cc2c(-c3cnn4cc(N5CCC(N6CCN(C)CC6)CC5)cnc34)ccnc2cc1C` [Compound 29], the IC50 was 384 nM in assay [1] (Homo sapiens, HEK-293T) and 83 nM in assay [2].

Consider `CN1CCN(C2CCN(c3cnc4c(-c5cccc6[nH]ncc56)cnn4c3)CC2)CC1` [Compound 243], for which the IC50 in assay [1] (Homo sapiens, HEK-293T) was more than 2000 nM; in assay [2], more than 1000 nM.

`CN1CCN(C2CCN(c3cnc4c(-c5ccnc6ccc(Cl)cc56)cnn4c3)CC2)CC1` [Compound 241]: the IC50 in assay [1] (Homo sapiens, HEK-293T) is more than 1000 nM; in assay [2] it was 92 nM.

On to `NC(=O)c1ccc(-c2cnn3cc(N4CCN(C5CCNCC5)CC4)cnc23)c2ccccc12` [Compound 3], for which the IC50 was less than 1 nM in assay [1] (Homo sapiens, HEK-293T) and 13 nM in assay [2].

`CN1CCN(C2CCN(c3cnc4c(-c5cccc(S(C)(=O)=O)c5)cnn4c3)CC2)CC1` [Compound 63]: the IC50 in assay [1] (Homo sapiens, HEK-293T) was 6830 nM; in assay [2], 977 nM.

On to `COc1cc2c(-c3cnn4cc(N5CCNCC5=O)cnc34)ccnc2cc1F` [Compound 326], for which the IC50 in assay [1] (Homo sapiens, HEK-293T) is more than 3000 nM; in assay [2], more than 1000 nM.

Regarding `COc1cc2c(-c3cnn4cc(N5CCN(C)CC5)cnc34)ccnc2cc1F` [Compound 195], the IC50 in assay [1] (Homo sapiens, HEK-293T) is 286 nM; in assay [2] it was 298 nM.

As to `COc1cc(F)c2nccc(-c3cnn4cc(N5CC(N6CCN(C)CC6)C5)cnc34)c2c1` [Compound 314], the IC50 in assay [1] (Homo sapiens, HEK-293T) was 27 nM; in assay [2], 8 nM.

For `COc1cc2c(-c3cnn4cc(N5CCN(CC(C)(C)O)CC5)cnc34)ccnc2cc1F` [Compound 200], the IC50 in assay [1] (Homo sapiens, HEK-293T) came to 324 nM; in assay [2], 94 nM.

In the case of `COc1cc2c(-c3cnn4cc(N5CCC(N6C[C@@H]7C[C@H]6CN7C)CC5)cnc34)ccnc2cc1F` [Compound 215], the IC50 in assay [1] (Homo sapiens, HEK-293T) was 142 nM; in assay [2], 34 nM.

Turning to `Cc1cc2c(-c3cnn4cc(N5CC(N6CCN(C)CC6)C5)cnc34)ccnc2cc1F` [Compound 308], the IC50 in assay [1] (Homo sapiens, HEK-293T) was 595 nM; in assay [2] it was 159 nM.

In the case of `Cc1ccc2nccc(-c3cnn4cc(N5CC(c6ccncc6)C5)cnc34)c2c1` [Example 292], the IC50 in assay [1] (Homo sapiens, HEK-293T) was 595 nM; in assay [2], 159 nM.

On to `CN1CCN(C2CCN(c3cnc4c(-c5ccnc6cn[nH]c56)cnn4c3)CC2)CC1` [Compound 269], for which the IC50 in assay [1] (Homo sapiens, HEK-293T) was more than 3000 nM; in assay [2], 311 nM.

On to `Cc1cc(-c2cnn3cc(N4CCN(C5(C)CCNCC5)CC4)cnc23)c2ccccc2n1` [Compound 33], for which the half-inhibitory concentration (IC50) in assay [1] (Homo sapiens, HEK-293T) stood at 37 nM; in assay [2], 94 nM.

Consider `CN1CCN(C2CCN(c3cnc4c(-c5ccc(C(N)=O)c6ccccc56)cnn4c3)CC2)CC1` [Compound 9], for which the IC50 in assay [1] (Homo sapiens, HEK-293T) amounted to 23 nM; in assay [2], 36 nM.

Consider `CN1CCN(C2CCN(c3cnc4c(-c5cn[nH]c5)cnn4c3)CC2)CC1` [Compound 14], for which the IC50 in assay [1] (Homo sapiens, HEK-293T) is more than 3000 nM; in assay [2], 186 nM.

For `CN1CCN(C2CCN(c3cnc4c(-c5ccnc6cc(C#N)ccc56)cnn4c3)CC2)CC1` [Compound 263], the IC50 in assay [1] (Homo sapiens, HEK-293T) was 424 nM; in assay [2] it was 295 nM.

`Cc1cc(-c2cnn3cc(N4CC(N5CCN(C)CC5)C4)cnc23)c2ccc(F)cc2n1` [Compound 310]: the IC50 in assay [1] (Homo sapiens, HEK-293T) turned out to be 38 nM; in assay [2], 21 nM.

`Cc1cc(-c2cnn3cc(N4CCOCC4)cnc23)c2ccccc2n1` [Compound 197]: the IC50 in assay [1] (Homo sapiens, HEK-293T) is 623 nM; in assay [2] it was 395 nM.

Turning to `Cc1cc2nccc(-c3cnn4cc(N5CCC(N6CCN(C)CC6)CC5)cnc34)c2[nH]1` [Compound 227], the IC50 was found to be 826 nM in assay [1] (Homo sapiens, HEK-293T) and 903 nM in assay [2].

As to `COc1cc2c(-c3cnn4cc(N5CCC6(CC5)CN(C)C6)cnc34)ccnc2cc1F` [Compound 216], the figures for the IC50 in assay [1] and in assay [2] were 44 nM and 24 nM, respectively.

As to `COc1cc2c(-c3cnn4cc(N5CCC(N6CCN(C)CC6)CC5)cc(OC5CCOCC5)c34)ccnc2cc1F` [Compound 224], the IC50 is more than 3000 nM in assay [1] (Homo sapiens, HEK-293T) and more than 1000 nM in assay [2].

For `COc1cc2c(-c3cnn4cc(N5CCC(N6CCN(C)CC6)CC5)cnc34)cc[n+]([O-])c2cc1F` [Compound 324], the concentration for half-maximal inhibition (IC50) was 723 nM in assay [1] (Homo sapiens, HEK-293T) and 178 nM in assay [2].

`COc1cc2c(-c3cnn4cc(N5C[C@H]6CN(C)C[C@H]6C5)cnc34)ccnc2cc1F` [Compound 218]: the IC50 in assay [1] (Homo sapiens, HEK-293T) stood at 141 nM; in assay [2], 26 nM.

Turning to `NC(=O)c1cccc2c(-c3cnn4cc(N5CCN(C6CCNCC6)CC5)cnc34)cccc12` [Compound 4], the IC50 is more than 3000 nM in assay [1] (Homo sapiens, HEK-293T) and more than 3000 nM in assay [2].

Take `Cc1cc(-c2cnn3cc(N4CCC(N5CCCN(C)CC5)CC4)cnc23)c2ccccc2n1` [Compound 62]: the 50% inhibitory concentration (IC50) in assay [1] (Homo sapiens, HEK-293T) was 37 nM; in assay [2], 90 nM.

In the case of `Cc1cccc2c(-c3cnn4cc(N5CCC(N6CCN(C)CC6)CC5)cnc34)ccnc12` [Compound 270], the IC50 in assay [1] (Homo sapiens, HEK-293T) was more than 3000 nM; in assay [2], 558 nM.

With `COc1cc2c(-c3c(N)nn4cc(N5CCC(N6CCN(C)CC6)CC5)cnc34)ccnc2cc1F` [Compound 214, 3-(7-fluoro-6-methoxy-4-quinolyl)-6-[4-(4-methylpiperazin-1-yl)-1-piperidyl]pyrazolo[1,5-a]pyrimidin-2-amine], the IC50 in assay [1] (Homo sapiens, HEK-293T) was more than 1000 nM; in assay [2], more than 1000 nM.

`COc1cc2c(-c3cnn4cc(N5CC(CC#N)(N6CCN(C)CC6)C5)cnc34)ccnc2cc1F` [Compound 201]: the IC50 in assay [1] (Homo sapiens, HEK-293T) amounted to 327 nM; in assay [2], 13 nM.

For `COc1cc2c(-c3cnn4cc(N5CCN(c6nnc(C)s6)CC5)cnc34)ccnc2cc1F` [Compound 204], the IC50 in assay [1] (Homo sapiens, HEK-293T) is more than 3000 nM; in assay [2], 11 nM.

In the case of `Cc1cc(-c2cnn3cc(N4CCC(N5CCN(C)CC(F)(F)C5)CC4)cnc23)c2ccccc2n1` [Compound 207], the IC50 worked out at 215 nM in assay [1] (Homo sapiens, HEK-293T) and 331 nM in assay [2].

With `COc1cc2c(-c3cnn4cc(N5CCC(N6CCC(C)(N)CC6)CC5)cnc34)ccnc2cc1F` [Compound 51], the IC50 came to 410 nM in assay [1] (Homo sapiens, HEK-293T) and 60 nM in assay [2].

These data come from patent publication US20230000869A1, “NOVEL ALK2 INHIBITORS AND METHODS FOR INHIBITING BMP SIGNALING” (The Brigham and Women's Hospital, Inc., priority 2017, published 2023).
